Laboratory results as given in patent publication US20170158636A1, “FUNCTIONALISED AND SUBSTITUTED CARBAZOLES AS ANTI-CANCER AGENTS” (Novogen Ltd., priority 2014, published 2017).

Tests used:
TNF-α = experiment: Cytokine release from LPS-stimulated PBMCs (HTRF); format: cell-based; settings: PBMC, human PBMCs
Experimental: (§1) The ability of compounds 1004, 1007 and 1018 to inhibit the release of cytokines TNF-α, IFN-γ, IL-6, IL-21, IL-17A and IL-23 was evaluated in vitro (Tables 2 and 3). Briefly, human peripheral blood mononuclear cells (PBMCs) were isolated from human peripheral blood by Histopaque density gradient centrifugation. The freshly isolated PBMCs were seeded at 50,000 cells/well in a 96-well half area plate. PBMCs were dosed with the test compounds (at 10 μM, 1 μM and 0.1 μM) and then incubated at 37° C. and 5% CO2 for 2 hours. To stimulate release of the cytokines IFN-γ, IL-21, IL-17A and IL-23, the PBMCs were treated with 50 ng/mL of phorbol 12-myristate 13-acetate (PMA) and 1 μg/mL of ionomycin and to stimulate the release of TNF-α and IL-6, PBMCs were treated with 100 ng/mL of lipopolysaccharide (LPS) from gram-negative bacteria. The PBMCs were then incubated at 37° C. and 5% CO2 for a further 6 hours and the cell supernatant was collected and a Homogenous Time Resolved Fluorescence (HTRF) assay was carried out following the manufacturer's instructions. Cytokine release from the PBMCs was captured using a Perkin Elmer ENVISION 2104 microplate reader set at 615 nm and 665 nm respectively.

IL-6 = experiment: Cytokine release from LPS-stimulated PBMCs (HTRF); format: cell-based; settings: PBMC, human PBMCs
Experimental: as §1

SK-Mel-28 melanoma cells = experiment: Anti-proliferative activity, cell-titre luminescent viability assay; format: cell-based; settings: Homo sapiens, 72 hours exposure
Experimental: (§2) The ability of compounds 1001-1018 and 1037-1039 to inhibit the proliferation of cancer cells representative of neuroblastoma, melanoma, prostate cancer, colorectal cancer, non-small cell lung carcinoma, and triple negative breast cancer was assessed (Table 1).
(§3) Briefly, a pre-determined number of cells as calculated from cell growth assays for each of the cell lines employed were seeded into their respective culture medium (using ATCC culture parameters—http://www.atcc.org) and cultured for 24 hours at 37° C. and 5% CO2 in 96-well culture plates. Once attached, each cell line was then exposed to increasing concentrations of each respective analogue (0.03, 0.3, 3 and 30 μM for compounds 1001-13 and 1015-18; 0.1, 0.3, 1, 3, 10 and 30 μM for compounds 1014 and 1037-39), cultured for a further 72 hours and exposed to cell-titre luminescent reagent (100 μL/well) for a further 30 minutes) to measure cell viability. Luminescence was captured using an EnVision multilabel reader and the data for each analogue concentration compared against no treatment control. For compounds 1001-13 and 1015-18, semi-log plots of Percent of Control versus concentration were prepared and IC50 determined using linear regression analysis. For compounds 1014 and 1037-39, cell viability was normalized to control (vehicle alone) and dose-response curves, and half maximal effective concentration (EC50) values were determined using Graph Pad Prism 6 (nonlinear regression sigmoidal dose-response variable slope).

[1] = tested on: A549 lung (NSLC) cancer cells; experiment: as above; format: cell-based; settings: Homo sapiens, 72 hours exposure
Experimental: as §2, §3

[2] = tested on: CaCo2 colorectal cancer cells; experiment: as above; format: cell-based; settings: Homo sapiens, Caco-2, 72 hours exposure
Experimental: as §2, §3

[3] = tested on: SK-N-SH neuroblastoma cells; experiment: as above; format: cell-based; settings: Homo sapiens, 72 hours exposure
Experimental: as §2, §3

[4] = tested on: MDA-MB-231 breast cancer cells; experiment: as above; format: cell-based; settings: Homo sapiens, 72 hours exposure
Experimental: as §2, §3

[5] = tested on: PC3 prostate cancer cells; experiment: as above; format: cell-based; settings: 72 hours exposure
Experimental: as §2, §3

[6] = tested on: DU145 prostate cancer cells; experiment: as above; format: cell-based; settings: Homo sapiens, DU-145, 72 hours exposure
Experimental: as §2, §3

IL-17A = experiment: Cytokine release from PMA/ionomycin-stimulated PBMCs (HTRF); format: cell-based; settings: PBMC, human PBMCs, PMA and ionomycin
Experimental: as §1

IFN-γ = experiment: as above; format: cell-based; settings: PBMC, human PBMCs, PMA and ionomycin
Experimental: as §1

IL-21 = experiment: as above; format: cell-based; settings: PBMC, human PBMCs, PMA and ionomycin
Experimental: as §1

IL-23 = experiment: as above; format: cell-based; settings: PBMC, human PBMCs, PMA and ionomycin
Experimental: as §1

[7] = tested on: actin cytoskeleton in SK-N-SH neuroblastoma cells; experiment: Microfilament disruption assay (phalloidin staining, linear feature quantitation); format: cell-based; settings: 0-40 μM, 24 hours post treatment
Experimental: FIG. 1: Imaging and quantitation of actin filaments in SK-N-SH neuroblastoma cells treated with compound (A) 1007, (B) 1013 and (C) 1016. Cells were stained with 488-Atto-Phallodin and DAPI to visualize the actin filament bundles and the nucleus, respectively. Shown in the top panel is a representative gray scale immunofluorescent image from control (vehicle alone), 5 μM and 10 μM treated cells. […] The coloured lines indicate the detected actin filaments. Also shown is the quantitation of cell number, filament number/cell and filament number/cell area (μM^2). Statistical analysis was performed using a one way ANNOVA-multiple comparison where each drug treated group was compared to the control. ****p<0.0001, […].
The ability of compounds 1007, 1013 and 1016 to disrupt the actin cytoskeleton was assessed in vitro using the microfilament disruption assay (FIG. 1).
Briefly, SK-N-SH neuroblastoma cells were seeded at 1800 cells/well in a 384 Perkin Elmer High Content Imaging “Cell Carrier” plate and left to plate down 24 hours prior to treatment. Cells were then treated with 0-40 μM of the test compounds (1:2 serial dilution in a 10 point dose response). 24 hours post treatment, cells were fixed with 4% w/v paraformaldehyde (PBS), permeabilized with Triton-X-100 and stained with 488-Atto-Phallodin and DAPI to visualize the actin filament bundles and the nucleus respectively. Single plane images were obtained on the Perkin Elmer Opera confocal microscope using a 20× objective. Twelve fields of view per condition (representing approximately 300-800 cells) were imaged. Images were then exported and changes in the organization and numbers of actin filaments within the cell were quantitated using a linear feature detection algorithm developed by CSIRO (Vindin et al. 2014). This algorithm detects the “ridge lines” or “peaks” in local pixel intensity in the cell image. It is these “ridge lines” that correspond to actin filament bundles and allow us to quantitate the number of filaments per cell.

[8] = tested on: Tpm3.1-containing actin filaments in SK-N-SH neuroblastoma cells; experiment: Disruption of Tpm3.1-containing actin filaments (γ9d staining); format: cell-based; settings: SK-N-SH cells, 0, 5 and 7.5 μM, 48 hours post treatment
Experimental: FIG. 2: Imaging and quantitation of Tpm3.1-containing actin filaments in SK-N-SH neuroblastoma cells treated with compound (A) 1007, (B) 1013 and (C) 1016. Cells were stained with γ9d (sheep polycolonal, 1:100) followed by 488-conjugated secondary (1:1000) and DAPI to visualize the Tpm3.1 containing filament bundles and the nucleus, respectively. Shown in the top panel is a representative gray scale immunofluorescent image from control (vehicle alone), 5 μM and 7.5 μM treated cells. […] The coloured lines indicate the detected Tpm3.1 containing actin filaments. Also shown is the quantitation of cell number, Tpm3.1 filament number/cell and Tpm3.1 filament number/cell area (μM^2). Statistical analysis was performed using a one way ANNOVA-multiple comparison where each drug treated group was compared to the control. ****p<0.0001.
Another assay was conducted to assess the ability of compounds 1007, 1013 and 1016 to specifically disrupt actin filaments containing Tpm3.1 (FIG. 2). Briefly, SK-N-SH neuroblastoma cells were seeded at 2×10^4 cells/mL in a 10 cm tissue culture plate and left to plate down 24 hours prior to treatment. Cells were then treated with 0, 5 and 7.5 μM of the test compounds. 48 hours post treatment, cells were fixed with 4% w/v paraformaldehyde (PBS), permeabilized with Triton-X-100 and stained with γ9d (sheep polycolonal, 1:100) followed by 488-conjugated secondary (1:1000) and DAPI to visualize the Tpm3.1 containing filament bundles and the nucleus, respectively. Single plane images were obtained on the Zeiss epifluorescent Axioscope microscope using a 20× objective. Six fields of view per condition were imaged. Images were then exported and the linear features (actin filaments containing Tpm3.1) were then quantitated using the linear feature detection algorithm described above.

Skeletal myosin II = experiment: Actin-activated myosin II ATPase activity; format: biochemical; settings: 50 μM, absence of Tpm3.1
Experimental: FIG. 4: Effect of anti-tropomyosin compounds on actin-activated myosin II ATPase activity. Skeletal myosin II (30-60 nM) was incubated with 1% (v/v) DMSO or 50 μM of Blebbistatin, TR100 or compound 1001 for 5 min prior to mixing with 3 μM F-actin. Reactions were initiated with 1 mM ATP and inorganic phosphate release was detected spectrophotometrically. Data represents mean±SEM, for n=2-4 independent repeats. **P-value, 0.001<0.01.
To exclude an off-target activity, the impact of compound 1001 and TR100 (another small molecule with anti-tropomyosin activity) on myosin II ATPase activity was evaluated in the absence of Tpm3.1. The small molecule blebbistatin was included as a positive control known to inhibit myosin II ATPase activity. Blebbistatin acts by binding to the myosin-ADP-Pi complex and slowing the release of inorganic phosphate (Kovacs et al., 2004). Myosin II was pre-incubated with 50 μM of blebbistatin, TR100 or 1001 prior to mixing with F-actin. […] Compound 1001 had no effect on myosin ATPase activity at equivalent concentrations to that of TR100 (FIG. 4).

Row | IC50 (SK-Mel-28 melanoma cells) [nM] | IC50 [1] [nM] | IC50 [2] [nM] | IC50 [3] [nM] | IC50 [4] [nM] | IC50 [5] [nM] | IC50 [6] [nM] | Structure (SMILES) | inhibition at 0.1 µM (TNF-α) [%] | inhibition at 1 µM (TNF-α) [%] | inhibition at 10 µM (TNF-α) [%] | inhibition at 0.1 µM (IL-6) [%] | inhibition at 1 µM (IL-6) [%] | inhibition at 10 µM (IL-6) [%] | inhibition at 0.1 µM (IL-17A) [%] | inhibition at 1 µM (IL-17A) [%] | inhibition at 10 µM (IL-17A) [%] | inhibition at 0.1 µM (IFN-γ) [%] | inhibition at 1 µM (IFN-γ) [%] | inhibition at 10 µM (IFN-γ) [%] | inhibition at 0.1 µM (IL-21) [%] | also measured
1 | 3500 | 3400 | 3700 | 2900 | 3800 | 2900 | 3300 | CN(C)CCCn1c2ccccc2c2cc(C(=O)N3CCN(CCc4ccc5c(c4)OCO5)CC3)ccc21 [Compound 1004, (4-(2-(benzo[d][1,3]dioxol-5-yl)ethyl)piperazin-1-yl)(9-(3-(dimethylamino)propyl)-9H-carbazol-3-yl)methanone] | 9 | -8 | 1 | -9 | -10 | 2 | -2 | 6 | 47 | -19 | -6 | -7 | -6 | inhibition at 1 µM (IL-21): -3%; inhibition at 10 µM (IL-21): 2%; inhibition at 0.1 µM (IL-23): -16%; inhibition at 1 µM (IL-23): 9%; inhibition at 10 µM (IL-23): 22%
2 | 2400 | 3000 | 3100 | 2700 | 2500 | 4000 | 2800 | CN1CCN(CCCn2c3ccccc3c3cc(C(=O)N4CCN(CCc5cccc(F)c5)CC4)ccc32)CC1 [Compound 1016, (4-(3-fluorophenethyl)piperazin-1-yl)(9-(3-(4-methylpiperazin-1-yl)propyl)-9H-carbazol-3-yl)methanone] | – | – | – | – | – | – | – | – | – | – | – | – | – | disruption of the actin cytoskeleton [7]: disrupt the actin cytoskeleton in a dose-dependent manner; disruption of Tpm3.1-containing actin filaments [8]: disrupt Tpm3.1-containing actin filaments in a dose-dependent manner
3 | 2000 | 3700 | 2000 | 2400 | 2800 | 3300 | 3500 | CN1CCN(CCCn2c3ccccc3c3cc(C(=O)N4CCN(CCc5ccc(F)cc5)CC4)ccc32)CC1 [Compound 1013, (4-(4-fluorophenethyl)piperazin-1-yl)(9-(3-(4-methylpiperazin-1-yl)propyl)-9H-carbazol-3-yl)methanone] | – | – | – | – | – | – | – | – | – | – | – | – | – | disruption of the actin cytoskeleton [7]: disrupt the actin cytoskeleton in a dose-dependent manner; disruption of Tpm3.1-containing actin filaments [8]: disrupt Tpm3.1-containing actin filaments in a dose-dependent manner
4 | 2500 | 2000 | 1500 | 1900 | 1600 | 2900 | 3300 | CN1CCN(CCCn2c3ccccc3c3cc(C(=O)N4CCN(CCc5ccccc5)CC4)ccc32)CC1 [Compound 1018, (4-phenethylpiperazin-1-yl)(9-(3-(4-methylpiperazin-1-yl)propyl)-9H-carbazol-3-yl)methanone] | 26 | 58 | 77 | 22 | 56 | 89 | 2 | 34 | 45 | 2 | 19 | 92 | 13 | inhibition at 1 µM (IL-21): 33%; inhibition at 10 µM (IL-21): 50%; inhibition at 0.1 µM (IL-23): -6%; inhibition at 1 µM (IL-23): -2%; inhibition at 10 µM (IL-23): 58%
5 | – | – | – | – | – | – | – | CCCCCCCCNC(=O)/C(C#N)=C/c1c(C)n(CCCN(C)C)c2ccccc12 [TR100] | – | – | – | – | – | – | – | – | – | – | – | – | – | inhibition of actin-activated myosin ATPase activity (Skeletal myosin II): ~70%
6 | – | – | – | – | – | – | – | Cc1ccc2c(c1)C(=O)C1(O)CCN(c3ccccc3)C1=N2 (stereo not shown) [blebbistatin] | – | – | – | – | – | – | – | – | – | – | – | – | – | effect on actin-activated myosin II ATPase activity (Skeletal myosin II): strongly inhibited
